# Assay results reported in patent US20220340665A1, “INHIBITOR AGAINST EXPRESSION OF IMMUNE CHECKPOINT MOLECULE” (RENASCIENCE INC., priority 2019, published 2022).
# Key:
# [1] = test system: cancer cell line (B16F10); experiment: PD-L1 expression induced by rPAI-1 in B16F10 with STAT3 inhibitor (Experimental Example 18); format: cell-based, mouse; details: simultaneous addition of rPAI-1 and STAT3 inhibitor
# Method: In order to clarify the mechanism of induction of PD-L1 expression by PAI-1, rPAI-1 was added to a culture medium of a cancer cell line (B16F10); after culturing for 6 hours, the cells were collected, and the degree of phosphorylation of JAK/STAT molecules was analyzed.
# Further, FIG. 18(B) confirmed that the increase in the PD-L1 expression induced by rPAI-1 was suppressed by simultaneous addition of rPAI-1 and a STAT3 inhibitor (BP-1-102, C188-9).
# [2] = biological target: T1, human PAI-1 (Homo sapiens, UniProt P05121); experiment: PAI-1 inhibitory activity, t-PA with S-2288 chromogenic substrate (Reference Experimental Example 1); details: system without compound after 30 minutes = 100%
# T1 sequence (P05121 24-402): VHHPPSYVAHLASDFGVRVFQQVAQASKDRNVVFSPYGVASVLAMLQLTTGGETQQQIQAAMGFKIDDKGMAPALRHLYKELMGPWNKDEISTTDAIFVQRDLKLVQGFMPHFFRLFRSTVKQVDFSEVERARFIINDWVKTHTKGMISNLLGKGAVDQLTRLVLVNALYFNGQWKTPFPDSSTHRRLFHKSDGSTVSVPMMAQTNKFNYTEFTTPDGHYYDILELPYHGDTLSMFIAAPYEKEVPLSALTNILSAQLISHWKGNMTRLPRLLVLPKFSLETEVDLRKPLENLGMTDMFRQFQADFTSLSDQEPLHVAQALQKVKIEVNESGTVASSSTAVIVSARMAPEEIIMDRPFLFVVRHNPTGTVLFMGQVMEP
# Method: Subsequently, human-derived tissue plasminogen activator (t-PA) (manufactured by American Diagnostica, Inc. (USA); the same applies hereinafter) adjusted to 0.35 pmol/μL was added thereto, and the mixture was further incubated at 37° C. for 15 minutes.
# [3] = biological target: T1, human PAI-1; experiment: PAI-1 inhibitory activity, t-PA with Spectrozyme t-PA chromogenic substrate (Reference Experimental Example 2); format: biochemical; set-up: purchased Molecular Innovations, Inc. (USA); details: head prints no concentration
# Method: Subsequently, human-derived tissue plasminogen activator (t-PA) (manufactured by American Diagnostica, Inc. (USA); the same applies hereinafter) adjusted to 0.05 pmol/μL was added thereto, and the mixture was further incubated at 37° C. for 60 minutes. Then, 0.25 mM of Spectrozyme t-PA synthetic substrate (manufactured by American Diagnostica, Inc. (USA); the same applies hereinafter), which is a chromogenic substrate, was added. […]
# Free p-nitroaniline removed from the chromogenic substrate (Spectrozyme t-PA) by t-PA action was measured using a spectrophotometer at an absorbance of 405 nm at 20-minute intervals, for 120 minutes.
# [4] = Tables 5 to 7, first value column
# [5] = Tables 5 to 7, second value column
Compound,increase in the PD-L1 expression induced by rPAI-1 [1],PAI-1 activity % ([2]; compound 20 μm (head)) [%],PAI-1 activity % ([2]; compound 50 μm (head)) [%],"PAI-1 activity % [3, 4] [%]","PAI-1 activity % [3, 5] [%]"
CN(CC(=O)N(Cc1ccc(C2CCCCC2)cc1)c1ccc(C(=O)O)c(O)c1)S(=O)(=O)c1c(F)c(F)c(F)c(F)c1F [BP-1-102],suppressed,,,,
O=C(CCCNC(=O)c1cccc(-c2ccoc2)c1)Nc1ccc(Cl)cc1C(=O)O [Example 1],,95.5,48.9,,
O=C([O-])c1cc(Cl)ccc1NC(=O)C1CCCN(C(=O)c2cccc(-c3ccoc3)c2)C1.[Na+] (centres unmarked) [Example 11],,68.2,26.1,,
O=C(O)c1cc(Cl)ccc1NC(=O)C1CCCN(C(=O)Cc2cccc(-c3ccoc3)c2)C1 (centres unmarked) [Example 12],,57.7,15.7,,
Cc1ccc(C23CC4CC(CC(C(=O)Nc5ccc(Cl)cc5C(=O)O)(C4)C2)C3)cc1 [Example 86],,,,1.4,63.5
"O=C(/C=C(/Cl)C1CCCCC1)Nc1ccc(Cl)cc1C(=O)O [Example 91, 5-chloro-2-(((2E)-3-chloro-3-cyclohexlprop-2-encyl)amino)benzoic acid]",,,,16.7,96.9
"O=C(Nc1ccc(CCC2CCCCC2)cc1C(=O)O)c1ccc(C2CCCCC2)cc1 [Example 93, 5-(2-cyclohexylethyl)2-(((4-cyclohexylphenyl)carbonyl)amino)beznoic acid]",,,,0.0,0.0
"O=C(C=Cc1ccc(C23CC4CC(CC(C4)C2)C3)cc1)Nc1ccc(Cl)cc1C(=O)O [Example 94, 2-((3-(4-(adamantan-1-yl)phenyl)prop-2-enoyl)amino)-5-chlorobenzoic acid]",,,,7.4,3.5
"C#Cc1ccc(NC(=O)c2ccc(C3CCCCC3)cc2)c(C(=O)O)c1 [Example 95, 2-(((4-cyclohexylphenyl)carbonyl)amino)-5-ethynlbenzoic acid]",,,,0.3,80.5
"O=C(Nc1ccc(Cl)cc1C(=O)[O-])c1cccc(OCc2ccc3ccccc3n2)c1.[Na+] [Example 99, 5-chloro-2-(((3-(quinolin-2-ylmethoxy)phenyl)carbonyl)amino)sodium benzoate]",,,,0.3,87.8
"O=C(Nc1ccc(Cl)cc1C(=O)[O-])c1ccc(OCc2ccc3ccccc3n2)cc1.[Na+] [Example 100, 5-chloro-2-(((4-(quinolin-2-ylmethoxy)phenyl)carbonyl)amino)sodium benzoate]",,,,0.7,92.1
"O=C(/C=C/c1cccc(-c2cccc3cccnc23)c1)Nc1ccc(Cl)cc1C(=O)[O-].[Na+] [Example 101, 5-chloro-2-(((2E)-3-(3-(quinolin-8-yl)phenyl)prop-2-enoyl)amino)sodium benzoate]",,,,0.2,24.7
"O=C(/C=C/c1cccc(-c2cccnc2)c1)Nc1ccc(Cl)cc1C(=O)[O-].[Na+] [Example 103, 5-chloro-2-(((2E)-3-[3-(pyridin-3-yl)phenyl]prop-2-enoyl)amino)sodium benzoate]",,,,34.2,92.3
"O=C(Nc1ccc(C23CC4CC(CC(C4)C2)C3)cc1)C(=O)Nc1ccc(Cl)cc1C(=O)[O-].[Na+] [Example 106, [(([4-(adamantan-1-yl)phenyl]amino)(oxo)acetyl)amino]-5-sodium chlorobenzoate]",,,,26.3,88.4
"O=C([O-])c1cc(Cl)ccc1NC(=O)c1cc(-c2ccccc2)nc2ccccc12.[Na+] [Example 107, 5-chloro-2-(((2-phenylquinolin-4-yl)carbonyl)amino)sodium benzoate]",,,,6.7,100.0
COc1ccc(S(=O)(=O)Nc2cc(-c3c(O)ccc4ccccc34)c(O)c3ccccc23)cc1 [Example C188-9],suppressed,,,,
"O=C(COc1ccc(C2CCCCC2)cc1)Nc1ccc(Cl)cc1C(=O)O [Existing compound 3, 5-chloro-2-(((4-cyclohexylphenoxy)aceytl)amino)benzoic acid, reference compound]",,,,0.3,36.3
